Patent US8088799B2, “Pharmaceutical composition comprising a sodium hydrogen exchange inhibitor and an angiotensin converting enzyme inhibitor” (Sanofi-Aventis Deutschland GmbH, priority 2002, dated 2012)
“Also recorded” adds a separate entry of the source.

What was measured:
[1] = system: spontaneously hypertensive rats (SHR); experiment: Survival rate of old spontaneously hypertensive rats under late-onset treatment; type: in vivo, rat; design: key to Holm-adjusted log rank test of survival vs. Cariporide / Holm-adjusted log rank test of survival vs. Placebo: * indicates significant difference; n.s. = not significant; details: for Median survival time: time from start of treatment (18th month of life) at which survival rate reaches 50%, Kaplan-Meier estimate
Method: (§1) The pharmacological model of spontaneously hypertensive rat is generally accepted to be representative of human essential hypertony. In each experimental group initially 27 18-months old rats were employed. 3 months after the start of treatment, when the number of surviving animals in the placebo control group was only 7, an interim analysis was carried out on 7 animals from each group.
The effect of a ramipril and cariporide combination product on the survival rate of rats with genetically related hypertension was investigated.
(§2) In the experiment old hypertensive rats (age: 18 months) were treated with the NHE inhibitor cariporide or with a subthreshold dose of ramipril with no lowering effect on the blood pressure or with a combination of both substances. For each of the four treatments 27 18-month old rats were employed. A daily dose of 400 mg of cariporide per kg body weight (0.6% cariporide in standard rat feed) and 10 μg ramipril per kg body weight (in the drinking water) were given. 3 months after the start of treatment, when the number of surviving animals in the placebo control group was only 7, an interim analysis was carried out on 7 animals from each group. The remaining, still living rats per group were continuously treated as mentioned above since they were 18 months old.
Thus, in the determination of the survival time […] 18-month old rats were employed in each experimental group (table 1).
There are evidently distinct differences between placebo and product groups on the one hand and between the individual products and the combination after the experiment had lasted only 3-4 months.
The statistical analysis was carried out essentially using the SAS/STAT procedure LIFETEST [SAS Institute Inc. (1989): SAS/STAT User's Guide, Version 6, 4th Edition, Volume 2, Cary, N.C.; SAS Institute Inc.]. The log rank tests were carried out pairwise on the experimental groups and adjusted to obtain a multiple significance level of 5% according to Holm [S. Holm (1979): A Simple Sequentally Rejective Multiple Test Procedure; Scand. J. Statist.; 6, pp 65-70].

[2] = system: hearts of old spontaneously hypertensive rats; experiment: Interim analysis 3 months after start of treatment: heart function, myocardial fibrosis (Hyp/Arg), heart weight; type: in vivo, rat; details: 7 animals per group; for Force of myocardial contraction / function of the heart: compared with placebo control hearts, 3 months after start of treatment
Method: as §1, §2
As mentioned above, 3 months after the start of treatment, when the number of surviving animals in the placebo control group was only 7, an interim analysis was carried out on 7 animals from each group. The weight of the complete heart and the weight of the left and right ventricle were measured. Just so, the molar ratio of hydroxyproline and ariginine in the heart tissues was measured (measured via HPLC), which is a marker for the myocardial fibrosis. […] Hyp/Arg is the ratio of hydroxyproline to arginine and is regarded as a fibrosis marker.
These effects are also reflected in the weights of the hearts (FIG. 3).

[3] = system: spontaneously hypertensive rats; details: known for some time; cited from earlier work
[4] = system: old normotensive rats; details: from WO 00/38661; cited from earlier work
[5] = age 18 months (start of treatment), 20 rats per group, cariporide 400 mg/kg/day in feed, ramipril 10 μg/kg/day in drinking water
[6] = age 19 months, of 20 rats per group
[7] = age 20 months, of 20 rats per group
[8] = age 21 months, of 20 rats per group
[9] = age 22 months, of 20 rats per group
[10] = age 23 months, of 20 rats per group
[11] = age 24 months, of 20 rats per group
[12] = age 25 months, of 20 rats per group
[13] = age 26 months, of 20 rats per group
[14] = age 27 months, of 20 rats per group
[15] = age 28 months, of 20 rats per group
[16] = age 29 months, of 20 rats per group
[17] = pairwise comparison, multiple significance level of 5%

Row | Compound | Number of surviving rats [1, 5] | Number of surviving rats [1, 6] | Number of surviving rats [1, 7] | Number of surviving rats [1, 8] | Number of surviving rats [1, 9] | Number of surviving rats [1, 10] | Number of surviving rats [1, 11] | Number of surviving rats [1, 12] | Number of surviving rats [1, 13] | Number of surviving rats [1, 14] | Number of surviving rats [1, 15] | Number of surviving rats [1, 16] | Holm-adjusted log rank test of survival vs. Placebo [1, 17] | Survival rate compared with the placebo treatment ([1]; result in words) | Median survival time [1] | Force of myocardial contraction / function of the heart [2] | other results
1 | CC(C)c1ccc(C(=O)N=C(N)N)cc1S(C)(=O)=O.CS(=O)(=O)O [Cariporide, cariporide] | 20 | 18 | 16 | 12 | 8 | 7 | 7 | 5 | 0 | 0 | 0 | 0 | * | statistically significant improvement in the survival rate | 4.0 months | significantly improved the function of the heart | Difference in survival rates between cariporide and ramipril ([1]; result in words, chosen significance level): No significant differences; Weight of the hearts ([2]; 3 months after start of late treatment): significantly smaller weights of the hearts; Myocardial fibrosis (Hyp/Arg ratio of hydroxyproline to arginine) ([2]; 3 months after start of late treatment, HPLC): significantly reduced; also recorded: possible for a preexisting fibrosis to be reduced
2 | CCOC(=O)[C@H](CCc1ccccc1)N[C@@H](C)C(=O)N1[C@H](C(=O)O)C[C@@H]2CCC[C@@H]21 [Ramipril, ramipril] | 20 | 18 | 15 | 11 | 9 | 4 | 0 | 0 | 0 | 0 | 0 | 0 | * | statistically significant improvement in the survival rate | 4.0 months | significant reduction in the force of myocardial contraction | Holm-adjusted log rank test of survival vs. Cariporide [1, 17]: n.s.; Life span of spontaneously hypertensive rats [3]: significantly prolongs the life span; Protective effect on pathological age-related organ changes [4]: no protective effect at all
